Test results from ChEMBL document CHEMBL3885861, “Open TG-GATES”.

Organism: Rattus norvegicus
Test: Open TG-GATES - Regimen: Daily Repeat
Type: toxicity, organism-based, Sprague-Dawley
Set-up: regimen Daily Repeat, gender Male, age 6 weeks
Details: in vivo, po, route gavage; for APTT / Bas / Eos / Fbg / Hb / Ht / Lym / MCH / MCHC / MCV / Mono / Neu / PT / Plat / RBC / Ret / WBC: tissue Blood; for KIDNEY_L / KIDNEY_R / KIDNEY_TOTAL: tissue Kidney; for LIVER: tissue Liver; for A/G / ALP / ALT / AST / BUN / CRE / Ca / Cl / DBIL / GLC / IP / K / LDH / Na / PL / RALB / TBIL / TC / TG / TP / gamma-GTP: tissue Plasma
[1] = 0 mg/kg, 72 h, dose level Control, time 3 day
[2] = 0 mg/kg, […], dose level Control, time 7 day
[3] = 0 mg/kg, […], dose level Control, time 14 day
[4] = 0 mg/kg, […], dose level Control, time 28 day
[5] = 1 mg/kg, 72 h, dose level Middle, time 3 day

## CN1C(C(=O)Nc2ccccn2)=C(O)c2sc(Cl)cc2S1(=O)=O [LORNOXICAM]
[1]
  TERMINAL_BW: 242.5 g
  APTT: 20.7 s
  Bas: 0.4%
  Eos: 1%
  Fbg: 223.4 mg/dL
  Hb: 12.9 g/dL
  Ht: 38.6%
  Lym: 79%
  MCH: 21 pg
  MCHC: 33.5%
  MCV: 62.6 fL
  Mono: 2.6%
  Neu: 16.2%
  PT: 11.7 s
  Plat: 126.1 x10_4/uL
  RBC: 617 x10_4/ul
  Ret: 6.1%
  WBC: 110.2 x10_2/uL
  KIDNEY_L: 1 g
  KIDNEY_R: 1 g
  KIDNEY_TOTAL: 2.1 g
  LIVER: 10.9 g
  A/G: 1.7
  ALP: 907.8 IU/L
  ALT: 46.2 IU/L
  AST: 91.2 IU/L
  BUN: 14.4 mg/dL
  CRE: 0.4 mg/dL
  Ca: 10.6 mg/dL
  Cl: 104.2 meq/L
  DBIL: 0.094 mg/dL
  GLC: 222.6 mg/dL
  IP: 6.8 mg/dL
  K: 4.1 meq/L
  LDH: 253.8 IU/L
  Na: 141.6 meq/L
  PL: 145.8 mg/dL
  RALB: 3.5 g/dL
  TBIL: 0.1 mg/dL
  TC: 74.2 mg/dL
  TG: 97.6 mg/dL
  TP: 5.6 g/dL
  gamma-GTP: 1.2 IU/L
[2]
  TERMINAL_BW: 279.8 g
  APTT: 20.1 s
  Bas: 0.6%
  Eos: 0.8%
  Fbg: 230.2 mg/dL
  Hb: 13.8 g/dL
  Ht: 40.8%
  Lym: 82%
  MCH: 20.7 pg
  MCHC: 33.7%
  MCV: 61.4 fL
  Mono: 2.2%
  Neu: 13.8%
  PT: 11.4 s
  Plat: 132.2 x10_4/uL
  RBC: 664.6 x10_4/ul
  Ret: 4.8%
  WBC: 106.9 x10_2/uL
  KIDNEY_L: 1.2 g
  KIDNEY_R: 1.2 g
  KIDNEY_TOTAL: 2.4 g
  LIVER: 13 g
  A/G: 1.7
  ALP: 1004.8 IU/L
  ALT: 33.2 IU/L
  AST: 68.4 IU/L
  BUN: 14 mg/dL
  CRE: 0.4 mg/dL
  Ca: 10.8 mg/dL
  Cl: 102.8 meq/L
  DBIL: 0.1 mg/dL
  GLC: 206 mg/dL
  IP: 6.7 mg/dL
  K: 4 meq/L
  LDH: 206 IU/L
  Na: 140.4 meq/L
  PL: 150 mg/dL
  RALB: 3.6 g/dL
  TBIL: 0.2 mg/dL
  TC: 70.8 mg/dL
  TG: 132.8 mg/dL
  TP: 5.7 g/dL
  gamma-GTP: 1.2 IU/L
[3]
  TERMINAL_BW: 335.2 g
  APTT: 21.1 s
  Bas: 0.6%
  Eos: 1%
  Fbg: 221.2 mg/dL
  Hb: 14 g/dL
  Ht: 41%
  Lym: 82%
  MCH: 20.3 pg
  MCHC: 34%
  MCV: 59.6 fL
  Mono: 2.4%
  Neu: 14.2%
  PT: 11.5 s
  Plat: 121.8 x10_4/uL
  RBC: 687.4 x10_4/ul
  Ret: 3.7%
  WBC: 100 x10_2/uL
  KIDNEY_L: 1.3 g
  KIDNEY_R: 1.3 g
  KIDNEY_TOTAL: 2.6 g
  LIVER: 14.5 g
  A/G: 1.5
  ALP: 781.8 IU/L
  ALT: 35.6 IU/L
  AST: 66.6 IU/L
  BUN: 15.4 mg/dL
  CRE: 0.4 mg/dL
  Ca: 10.7 mg/dL
  Cl: 104.4 meq/L
  DBIL: 0.096 mg/dL
  GLC: 195 mg/dL
  IP: 6.9 mg/dL
  K: 4 meq/L
  LDH: 196.4 IU/L
  Na: 141.2 meq/L
  PL: 148.6 mg/dL
  RALB: 3.5 g/dL
  TBIL: 0.2 mg/dL
  TC: 72.8 mg/dL
  TG: 118.4 mg/dL
  TP: 5.8 g/dL
  gamma-GTP: 0.8 IU/L
[4]
  TERMINAL_BW: 380.8 g
  APTT: 21.4 s
  Bas: 0.6%
  Eos: 1.2%
  Fbg: 223.4 mg/dL
  Hb: 15.8 g/dL
  Ht: 45.2%
  Lym: 81.6%
  MCH: 20.1 pg
  MCHC: 35%
  MCV: 57.6 fL
  Mono: 1.8%
  Neu: 14.2%
  PT: 11.7 s
  Plat: 108.5 x10_4/uL
  RBC: 784.8 x10_4/ul
  Ret: 2%
  WBC: 101.8 x10_2/uL
  KIDNEY_L: 1.4 g
  KIDNEY_R: 1.3 g
  KIDNEY_TOTAL: 2.7 g
  LIVER: 14.4 g
  A/G: 1.4
  ALP: 637.4 IU/L
  ALT: 33.6 IU/L
  AST: 67.4 IU/L
  BUN: 15.8 mg/dL
  CRE: 0.5 mg/dL
  Ca: 10.1 mg/dL
  Cl: 103.8 meq/L
  DBIL: 0.1 mg/dL
  GLC: 198.2 mg/dL
  IP: 6.1 mg/dL
  K: 4 meq/L
  LDH: 173.2 IU/L
  Na: 141.6 meq/L
  PL: 142.8 mg/dL
  RALB: 3.6 g/dL
  TBIL: 0.2 mg/dL
  TC: 67.6 mg/dL
  TG: 148.2 mg/dL
  TP: 6.1 g/dL
  gamma-GTP: 1.2 IU/L
[5]
  TERMINAL_BW: 239.1 g
  APTT: 18.8 s
  Bas: 0.8%
  Eos: 0.8%
  Fbg: 276 mg/dL
  Hb: 11.8 g/dL
  Ht: 35.5%
  Lym: 69.8%
  MCH: 21 pg
  MCHC: 33.2%
  MCV: 63.4 fL
  Mono: 3.8%
  Neu: 24.4%
  PT: 11.3 s
  Plat: 122.1 x10_4/uL
  RBC: 561.4 x10_4/ul
  Ret: 6.3%
  WBC: 144.7 x10_2/uL
  KIDNEY_L: 1.1 g
  KIDNEY_R: 1.1 g
  KIDNEY_TOTAL: 2.2 g
  LIVER: 11.7 g
  A/G: 1.4
  ALP: 872.4 IU/L
  ALT: 37.2 IU/L
  AST: 65 IU/L
  BUN: 12 mg/dL
  CRE: 0.4 mg/dL
  Ca: 10.4 mg/dL
  Cl: 104.4 meq/L
  DBIL: 0.098 mg/dL
  GLC: 220.2 mg/dL
  IP: 7.4 mg/dL
  K: 4.5 meq/L
  LDH: 198.6 IU/L
  Na: 140.8 meq/L
  PL: 150 mg/dL
  RALB: 3 g/dL
  TBIL: 0.2 mg/dL
  TC: 74 mg/dL
  TG: 154 mg/dL
  TP: 5.2 g/dL
  gamma-GTP: 1.6 IU/L
1 mg/kg, […], dose level Middle, time 7 day
  TERMINAL_BW: 275.8 g
